ChEMBL document CHEMBL1201862, “PubChem BioAssay data set” (2004)
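48-hour exposure; five concentrations; linearly interpolated endpoints. GI50 is the concentration that inhibits growth by half.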 Activity calls are given as the source filed them. No stated cut-off is given here; in the data, active = GI50 up to about 1.1 µM and inactive = higher.

Key:
Experiment in all cases: DTP human tumour cell line panel, 48 h
[1] = tested on: KM12
[2] = tested on: SK-MEL-5
[3] = tested on: SNB-19
[4] = tested on: OVCAR-3
[5] = tested on: SF-268
[6] = tested on: CCRF-CEM
[7] = tested on: A549
[8] = tested on: OVCAR-5
[9] = tested on: M19-MEL
[10] = tested on: MDA-MB-231
[11] = tested on: U-251
[12] = tested on: COLO 205
[13] = tested on: HT-29
[14] = tested on: SNB-75
[15] = tested on: UACC-257
[16] = tested on: TK-10
[17] = tested on: BT-549
[18] = tested on: SR
[19] = tested on: HCT-116
[20] = tested on: Malme-3M

For `Cn1c2ccccc2n2c3nc4ccccc4nc3c(C#N)c12`, the GI50 [1] was 9440 nM (inactive), the GI50 [2] was 4400 nM (inactive) and the GI50 [3] was > 100000 nM (inactive). For the same molecule, the GI50 [4] was > 100000 nM (inactive), the GI50 [5] was 81300 nM (inactive) and the GI50 [6] was 60000 nM (inactive). For the same molecule, the GI50 [7] was > 100000 nM (inactive), the GI50 [8] was 10000 nM (inactive) and the GI50 [9] was < 10 nM (active). The GI50 [10] was > 97100 nM (inactive), the GI50 [11] was 74000 nM (inactive) and the GI50 [12] was 70000 nM (inactive). The GI50 [13] was 14300 nM (inactive), the GI50 [14] was > 30800 nM (inactive) and the GI50 [15] was > 82600 nM (inactive). For the same molecule, the GI50 [16] was > 10000 nM (inactive), the GI50 [17] was > 100000 nM (inactive) and the GI50 [18] was 49300 nM (inactive). For the same molecule, the GI50 [19] was 53800 nM (inactive) and the GI50 [20] was > 81800 nM (inactive).

`COC1/C=C\C=C(/C)C(=O)NC2=CC(=O)C(N)=C(CC(C)CC(OC)C(O)C(C)C=C(C)C1OC(N)=O)C2=O` (stereo not given) was tested, and the GI50 [1] was 24.4 nM (active), the GI50 [2] was 42 nM (active) and the GI50 [3] was 42.4 nM (active). The GI50 [4] was 68.1 nM (active), the GI50 [5] was 419 nM (active) and the GI50 [6] was 178 nM (active). For the same molecule, the GI50 [7] was 21.6 nM (active), the GI50 [8] was 375 nM (active) and the GI50 [9] was < 10 nM (active). For the same molecule, the GI50 [10] was < 18.7 nM (active), the GI50 [11] was < 10 nM (active) and the GI50 [12] was < 10 nM (active). The GI50 [13] was < 10 nM (active), the GI50 [14] was < 13.7 nM (active) and the GI50 [15] was 30 nM (active). The GI50 [16] was 321 nM (active), the GI50 [17] was 11800 nM (inactive) and the GI50 [18] was 16.1 nM (active). The GI50 [19] was 23.3 nM (active) and the GI50 [20] was 23.1 nM (active).
